Measured values taken from patent publication US8101598B2 (priority 2006, dated 2012).
Counter-ions that a name gives are not always drawn.

Molecular target: α7-subtype of nicotinic receptors (Rattus norvegicus, UniProt Q05941)
Assay: biochemical
Format: binding

α7-subtype of nicotinic receptors, sequence (Q05941 23-502): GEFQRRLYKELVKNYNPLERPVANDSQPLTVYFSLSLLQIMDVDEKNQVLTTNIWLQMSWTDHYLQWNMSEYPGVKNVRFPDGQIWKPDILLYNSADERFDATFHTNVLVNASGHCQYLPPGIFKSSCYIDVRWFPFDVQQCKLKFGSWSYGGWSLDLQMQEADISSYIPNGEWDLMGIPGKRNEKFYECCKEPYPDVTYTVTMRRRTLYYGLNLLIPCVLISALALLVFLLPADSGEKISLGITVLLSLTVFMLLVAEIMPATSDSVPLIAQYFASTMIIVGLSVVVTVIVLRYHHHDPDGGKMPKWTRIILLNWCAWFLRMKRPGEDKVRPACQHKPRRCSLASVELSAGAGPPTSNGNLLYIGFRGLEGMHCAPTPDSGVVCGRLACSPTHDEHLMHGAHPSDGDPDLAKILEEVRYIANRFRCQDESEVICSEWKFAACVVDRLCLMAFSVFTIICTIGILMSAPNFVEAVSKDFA

SMILES: c1cc2c(cc1-c1nnc(N3CCN4CCC3CC4)o1)OCO2 [Compound A1, 4-(5-Benzo[1,3]-dioxol-5-yl-[1,3,4]oxadiazol-2-yl)-1,4-diaza-bicyclo[3.2.2]nonane Fumaric Acid Salt]
- IC50: < 10 nM
